# According to US9788539B2, “Platelet protection solution having beta-galactosidase and sialidase inhibitors” (Velico Medical, Inc., priority 2011, dated 2017):
# Entries after “also recorded” stand apart in the source; their conditions may differ.
# What was measured:
# Type in all cases: cell-based
# [1] = test system: Serratia marcescens strain (ATCC #43862); test: Planktonic growth of S. marcescens in 96-well PVC plate; details: 1 mM DANA, 48 h, 30% plasma in PAS, 30% PC in PAS or 100% plasma
# Method: Serratia marcescens strain (ATCC #43862) was purchased from American Type Culture Collection (Manassas, Va.). Cells were grown in brain-heart infusion broth (ATCC media 3) at 37° C. and 250 rpm. Frozen stocks were prepared from overnight culture and stored at −80° C. in brain-heart infusion broth containing 15% glycerol by volume. To prepare the seed culture, the cryostock of Serratia marcescens was inoculated into 3 mL of brain-heart infusion broth with a cotton swab and incubated at 37° C. with agitation at 250 rpm for 6 h. The cell density was determined at 600 nm on a dual wavelength spectrometer and diluted to 0.5 McFarland Standard (1.5×10^8 cells/mL) with sterile PBS. Ten μL of the diluted culture was inoculated into 140 μL of 30% plasma in PAS, 30% PC by volume in PAS or 100% plasma, supplemented with or without 1 mM DANA, in the wells of 96-well PVC plates (Corning Biosciences). For each media, six replicates were performed. Ten μL of PBS was inoculated into the control wells. The microtiter plates were then sealed with sterile porous film (VWR) and placed on a platform shaker. The cultures were incubated for 48 h with gentle shaking (˜100 rpm). […] The crystal violet retained by the biofilm was eluted with 200 μL of dimethyl sulfoxide (DMSO) or 30% acetic acid, and read at 595 nm.
# [2] = test system: mouse platelets; test: Mouse platelets stored in 30% plasma and 70% INTERSOL solution at RT for 48 h, flow cytometry
# Method: The supernatant, containing platelet rich plasma, buffy coat, and some RBC, was removed and centrifuged at 300×g for 6 min to obtain platelet rich plasma (PRP). […] About 70% of the supernatant (105 μL) was removed from each tube, and replaced with equal volume of […]® solution. […] The volumes in tubes lacking one or both additives were evened out with PBS. The platelet suspensions were stored at RT for 48 h on a shaker and analyzed by flow cytometry.
# [3] = test system: mouse platelets; test: Sialidase-induced β-galactose exposure on platelets, lectin binding by flow cytometry; details: mouse platelets, 5 mU α2-3,6,8,9-sialidase
compound,measurement,setting,value
CC(=O)NC1C(O)C=C(C(=O)O)OC1C(O)C(O)CO (stereo not shown) [DANA],bacterial growth (planktonic cell density),[1],inhibited the bacterial growth under all conditions
same,platelet events within the platelet gate,"[2]; 48 h at RT, DANA 1 mM and/or glucose 10 mM (57% in INTERSOL alone)",over 80%
same,state of platelet population by forward and side scatter,[2]; compared with glucose alone,more resting platelet population
same,β-galactose exposure induced by sialidase in presence of inhibitor,[3],completely inhibited; also recorded: inhibits the exposure of β-galactose
